Test results: PubChem BioAssay AID588645 (Sanford-Burnham Center for Chemical Genomics, 2011)
pIC50: −log10 of the molar value. Activity calls are given as the source filed them. No rule for the calls is given here.

Target: Intestinal-type alkaline phosphatase (Homo sapiens) (UniProt P09923)
Assay: human IAP enzyme inhibitors, SAR follow-up, mouse IAP inhibitor project, biochemical, set 2 (AID 588645)
Conditions: human intestinal alkaline phosphatase enzymatic inhibition assay

Chain of Intestinal-type alkaline phosphatase (Homo sapiens) (P09923 whole entry, looked up): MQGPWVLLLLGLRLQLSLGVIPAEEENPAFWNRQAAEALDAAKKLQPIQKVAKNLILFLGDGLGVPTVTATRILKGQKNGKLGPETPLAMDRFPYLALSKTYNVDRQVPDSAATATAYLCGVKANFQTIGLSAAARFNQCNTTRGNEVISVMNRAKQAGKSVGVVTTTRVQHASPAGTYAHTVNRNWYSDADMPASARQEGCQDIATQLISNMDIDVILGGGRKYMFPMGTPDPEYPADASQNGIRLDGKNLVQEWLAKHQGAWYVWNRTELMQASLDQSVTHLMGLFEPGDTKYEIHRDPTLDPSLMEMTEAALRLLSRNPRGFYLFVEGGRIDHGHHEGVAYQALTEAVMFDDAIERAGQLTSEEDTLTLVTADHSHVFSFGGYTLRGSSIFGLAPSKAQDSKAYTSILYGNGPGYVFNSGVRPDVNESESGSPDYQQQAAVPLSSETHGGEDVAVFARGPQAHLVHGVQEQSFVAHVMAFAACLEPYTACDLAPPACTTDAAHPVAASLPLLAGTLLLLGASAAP

SMILES	IC50	pIC50
O=C(CCS(=O)(=O)Nc1ccc2[nH]c(=O)oc2c1)NCc1cccc(Cl)c1	> 100 µM (inactive)	–
Cc1ccc(C)c(NC(=O)CCNS(=O)(=O)c2ccc3c(c2)CCC3)c1	> 100 µM (inactive)	–
O=C(CCNS(=O)(=O)c1ccc2[nH]c(=O)oc2c1)NCc1cccc(C(F)(F)F)c1	> 100 µM (inactive)	–
COc1cccc(CNC(=O)CCNS(=O)(=O)c2ccc3[nH]c(=O)oc3c2)c1	> 100 µM (inactive)	–
CC(C)(C)c1ccc(/C=N/NC(=O)c2cc(O)c(O)c(O)c2)cc1	> 100 µM (inactive)	–
O=C(CCNS(=O)(=O)c1ccc2[nH]c(=O)oc2c1)NCc1ccc(F)cc1	> 100 µM (inactive)	–
COc1ccc(CCNC(=O)CCCNS(=O)(=O)c2ccc3[nH]c(=O)oc3c2)cc1	> 100 µM (inactive)	–
Cc1ccccc1CNC(=O)CCCNS(=O)(=O)c1ccc2[nH]c(=O)oc2c1	> 100 µM (inactive)	–
COc1ccc(NC(=O)CCNS(=O)(=O)c2ccc3[nH]c(=O)oc3c2)cc1OC	> 100 µM (inactive)	–
O=c1[nH]c2ccc(S(=O)(=O)NCCc3ccc4c(c3)OCO4)cc2o1	> 100 µM (inactive)	–
CN(C)c1ccc(CNC(=O)C2CCCN(S(=O)(=O)c3ccc4[nH]c(=O)oc4c3)C2)cc1 (stereo not given)	> 100 µM (inactive)	–
C/C(=N\NC(=O)c1cc(O)c(O)c(O)c1)c1ccc(O)cc1O	> 100 µM (inactive)	–
COc1cccc(NC(=O)CCNS(=O)(=O)c2ccc3c(c2)oc(=O)n3C)c1	> 100 µM (inactive)	–
O=C(N/N=C/c1ccc(F)cc1F)c1ccc(O)cc1	> 100 µM (inactive)	–
COc1ccc(CNC(=O)CCCNS(=O)(=O)c2ccc3[nH]c(=O)oc3c2)c(OC)c1	> 100 µM (inactive)	–
O=C(CCNS(=O)(=O)c1ccc2[nH]c(=O)oc2c1)NCc1cccc(F)c1	> 100 µM (inactive)	–
COc1cccc(CNC(=O)CNS(=O)(=O)c2ccc3[nH]c(=O)oc3c2)c1	> 100 µM (inactive)	–
CC(C)c1ccc(NC(=O)C2CCCN(S(=O)(=O)c3ccc4c(c3)oc(=O)n4C)C2)cc1 (stereo not given)	> 100 µM (inactive)	–
COc1ccccc1CNC(=O)CCCNS(=O)(=O)c1ccc2[nH]c(=O)oc2c1	> 100 µM (inactive)	–
O=C(N/N=C/c1ccccc1F)c1ccc(O)cc1	> 100 µM (inactive)	–
COc1ccc(NS(=O)(=O)c2ccc3[nH]c(=O)oc3c2)cc1OC	> 100 µM (inactive)	–
COc1ccc(CNC(=O)CCNS(=O)(=O)c2ccc3ccccc3c2)c(OC)c1	> 100 µM (inactive)	–
COc1ccc(C(=O)N/N=C/c2ccccc2F)cc1	> 100 µM (inactive)	–

SMILES	IC50	pIC50
CC(=NNC(=O)c1ccccc1OCCOc1ccccc1)c1ccccc1F	> 100 µM (inactive)	–
COc1ccc(/C=N/NC(=O)c2cc(O)c(O)c(O)c2)cc1OC	> 100 µM (inactive)	–
Cc1cc(NC(=O)CCNS(=O)(=O)c2ccc3[nH]c(=O)oc3c2)ccc1Br	> 100 µM (inactive)	–
O=C(CCNS(=O)(=O)c1ccc2[nH]c(=O)oc2c1)NCc1ccccc1F	> 100 µM (inactive)	–
O=C(NCc1ccc2c(c1)OCO2)C1CCCN(S(=O)(=O)c2ccc3[nH]c(=O)oc3c2)C1 (stereo not given)	> 100 µM (inactive)	–
COc1cccc(/C=N/NC(=O)c2cc(O)c(O)c(O)c2)c1O	> 100 µM (inactive)	–
COc1ccccc1CNC(=O)CCNS(=O)(=O)c1ccc2[nH]c(=O)oc2c1	> 100 µM (inactive)	–
O=C(CCNS(=O)(=O)c1ccc2[nH]c(=O)oc2c1)NCc1ccc(O)c(O)c1	–	4.74
O=C(CCNS(=O)(=O)c1ccc2[nH]c(=O)oc2c1)NCc1ccccc1Cl	> 100 µM (inactive)	–
COc1ccc(/C=N/NC(=O)c2cc(O)c(O)c(O)c2)c(OC)c1	> 100 µM (inactive)	–
COc1ccc(CNC(=O)CCNS(=O)(=O)c2ccc3[nH]c(=O)oc3c2)cc1	> 100 µM (inactive)	–
N#Cc1cccc(NC(=O)CNS(=O)(=O)c2ccc3[nH]c(=O)oc3c2)c1	> 100 µM (inactive)	–
O=C(CCNS(=O)(=O)c1ccc2[nH]c(=O)oc2c1)NCCc1ccc(O)cc1	> 100 µM (inactive)	–
COc1ccc(CNS(=O)(=O)c2ccc3[nH]c(=O)oc3c2)c(OC)c1	> 100 µM (inactive)	–
O=C(NN=Cc1ccccc1F)c1ccc(O)cc1	> 100 µM (inactive)	–
Cc1ccccc1CNC(=O)C1CCCN(S(=O)(=O)c2ccc3[nH]c(=O)oc3c2)C1 (stereo not given)	> 100 µM (inactive)	–
COc1ccc(/C=N\NC(=O)c2cc(O)c(O)c(O)c2)cc1CN1CCN(c2ccc(F)cc2)CC1	> 100 µM (inactive)	–
O=C(CCCNS(=O)(=O)c1ccc2[nH]c(=O)oc2c1)NCc1ccc2c(c1)OCO2	> 100 µM (inactive)	–
O=C(N/N=C/c1ccc(Cl)c(Cl)c1)c1cc(O)c(O)c(O)c1	> 100 µM (inactive)	–
CCc1ccc(NC(=O)C2CCCN(S(=O)(=O)c3ccc4c(c3)oc(=O)n4C)C2)cc1 (stereo not given)	> 100 µM (inactive)	–
COc1cccc(C(=O)N/N=C/c2ccccc2F)c1	> 100 µM (inactive)	–
CSc1cccc(NC(=O)C2CCCN(S(=O)(=O)c3ccc4c(c3)oc(=O)n4C)C2)c1 (stereo not given)	> 100 µM (inactive)	–
COc1cccc(CNS(=O)(=O)c2ccc3[nH]c(=O)oc3c2)c1	> 100 µM (inactive)	–

SMILES	IC50	pIC50
CC(C)Oc1ccc(CNC(=O)C2CCCN(S(=O)(=O)c3ccc4[nH]c(=O)oc4c3)C2)cc1 (stereo not given)	> 100 µM (inactive)	–
COc1ccc(CCNC(=O)CCCNS(=O)(=O)c2ccc3[nH]c(=O)oc3c2)cc1OC	> 100 µM (inactive)	–
Cc1ccc(C)c(NC(=O)C2CCCN(S(=O)(=O)c3ccc4c(c3)oc(=O)n4C)C2)c1 (stereo not given)	> 100 µM (inactive)	–
O=C(N/N=C/c1ccccc1C(F)(F)F)c1cc(O)c(O)c(O)c1	> 100 µM (inactive)	–
COc1ccc(NC(=O)CCNS(=O)(=O)c2ccc3c(c2)CCC3)cc1OC	> 100 µM (inactive)	–
N#Cc1ccc(NS(=O)(=O)c2ccc3[nH]c(=O)oc3c2)cc1	> 100 µM (inactive)	–
O=c1[nH]c2ccc(S(=O)(=O)Nc3ccc4c(c3)OCO4)cc2o1	> 100 µM (inactive)	–
O=C(CCNS(=O)(=O)c1ccc2[nH]c(=O)oc2c1)NCc1ccc(Cl)cc1	> 100 µM (inactive)	–
O=C(N/N=C/c1c(F)cccc1F)c1ccc(O)cc1	> 100 µM (inactive)	–
CCc1ccc(NC(=O)CCNS(=O)(=O)c2ccc3c(c2)oc(=O)n3C)cc1	> 100 µM (inactive)	–
COc1ccc(CNC(=O)CCNS(=O)(=O)c2ccc3[nH]c(=O)oc3c2)c(OC)c1	> 100 µM (inactive)	–
Cc1ccc(C)c(CNC(=O)C2CCCN(S(=O)(=O)c3ccc4[nH]c(=O)oc4c3)C2)c1 (stereo not given)	> 100 µM (inactive)	–
O=C(N/N=C/c1c(F)cccc1Cl)c1cc(O)c(O)c(O)c1	> 100 µM (inactive)	–
CC(C)c1ccc(/C=N/NC(=O)c2cc(O)c(O)c(O)c2)cc1	–	4.96
Cc1ccc(C)c(NS(=O)(=O)c2ccc3[nH]c(=O)oc3c2)c1	> 100 µM (inactive)	–
N#Cc1cccc(CNC(=O)CCNS(=O)(=O)c2ccc3[nH]c(=O)oc3c2)c1	> 100 µM (inactive)	–
O=C(CCNS(=O)(=O)c1ccc2[nH]c(=O)oc2c1)NCCc1ccc2c(c1)OCO2	> 100 µM (inactive)	–
COc1ccc(C(=O)N/N=C/c2c(F)cccc2Cl)cc1OC	> 100 µM (inactive)	–
COc1ccc(CNC(=O)CCCNS(=O)(=O)c2ccc3[nH]c(=O)oc3c2)cc1OC	> 100 µM (inactive)	–
Cc1ccc(NC(=O)CCNS(=O)(=O)c2ccc3c(c2)oc(=O)n3C)c(C)c1	> 100 µM (inactive)	–
O=C(CCS(=O)(=O)Nc1ccc2[nH]c(=O)oc2c1)NCc1ccccc1Cl	> 100 µM (inactive)	–
CSc1cccc(NC(=O)CCNS(=O)(=O)c2ccc3c(c2)oc(=O)n3C)c1	> 100 µM (inactive)	–
O=C(N/N=C/c1c(F)cccc1Cl)c1ccc(O)cc1O	> 100 µM (inactive)	–

SMILES	IC50	pIC50
O=C(CNS(=O)(=O)c1ccc2[nH]c(=O)oc2c1)NCCc1ccc2c(c1)OCO2	> 100 µM (inactive)	–
O=C(CCNS(=O)(=O)c1ccc2ccccc2c1)NCCc1ccc2c(c1)OCO2	> 100 µM (inactive)	–
COc1ccc(NC(=O)CCNS(=O)(=O)c2ccc3ccccc3c2)cc1OC	> 100 µM (inactive)	–
COc1ccc(OC)c(NC(=O)CCNS(=O)(=O)c2ccc3c(c2)oc(=O)n3C)c1	> 100 µM (inactive)	–
COc1cc(C(=O)N/N=C/c2c(F)cccc2Cl)cc(OC)c1OC	> 100 µM (inactive)	–
O=C(N/N=C/c1c(F)cccc1Cl)c1ccc(O)cc1	> 100 µM (inactive)	–
COc1ccc(NC(=O)CCCNS(=O)(=O)c2ccc3[nH]c(=O)oc3c2)c(OC)c1	> 100 µM (inactive)	–
O=C(CCCNS(=O)(=O)c1ccc2[nH]c(=O)oc2c1)NCCc1ccc(O)cc1	> 100 µM (inactive)	–
O=C(CCNS(=O)(=O)c1ccc2[nH]c(=O)oc2c1)NCc1cccc(Cl)c1	> 100 µM (inactive)	–
Cc1ccc(C)c(NC(=O)CCNS(=O)(=O)c2ccc3[nH]c(=O)oc3c2)c1	> 100 µM (inactive)	–
COc1ccc(OC)c(NC(=O)C2CCCN(S(=O)(=O)c3ccc4c(c3)oc(=O)n4C)C2)c1 (stereo not given)	> 100 µM (inactive)	–
N#Cc1ccc(NC(=O)CNS(=O)(=O)c2ccc3[nH]c(=O)oc3c2)cc1	> 100 µM (inactive)	–
Cc1ccc(C)c(NC(=O)CCNS(=O)(=O)c2ccc3ccccc3c2)c1	> 100 µM (inactive)	–
Cc1ccc(CNC(=O)C2CCCN(S(=O)(=O)c3ccc4[nH]c(=O)oc4c3)C2)cc1 (stereo not given)	> 100 µM (inactive)	–
O=C(CCNS(=O)(=O)c1ccc2[nH]c(=O)oc2c1)Nc1ccc2c(c1)OCO2	> 100 µM (inactive)	–
COc1ccc(CNS(=O)(=O)c2ccc3[nH]c(=O)oc3c2)cc1	> 100 µM (inactive)	–
O=C(CCCNS(=O)(=O)c1ccc2[nH]c(=O)oc2c1)NCc1ccccc1Cl	> 100 µM (inactive)	–
O=C(NCc1ccccc1)C1CCCN(S(=O)(=O)c2ccc3[nH]c(=O)oc3c2)C1 (stereo not given)	> 100 µM (inactive)	–
O=C(CCNS(=O)(=O)c1ccc2[nH]c(=O)oc2c1)NCc1ccc(C(F)(F)F)cc1	> 100 µM (inactive)	–
O=c1[nH]c2ccc(S(=O)(=O)NCc3ccc4c(c3)OCO4)cc2o1	> 100 µM (inactive)	–
COc1ccc(NC(=O)CCCNS(=O)(=O)c2ccc3[nH]c(=O)oc3c2)cc1OC	> 100 µM (inactive)	–
